From US6989399B2, “Antiamyloid phenylsulfonamides: N-alkanol derivatives” (Bristol-Myers Squibb Company, priority 2002, dated 2006)

Target: T1, γ-secretase (Homo sapiens, UniProt P49768)
T1 construct: The endogenous γ-secretase present in the isolated membranes; endogenous in cells; host or cells: isolated membrane fraction of human-derived cell lines such as HeLa and H4, stably transfected with β-APP substrate
Test: Isolated membrane γ-secretase assay, time-resolved fluorescence detection of Aβ
Assay type: biochemical
Conditions: isolated membranes, about 90 minutes at 37 degrees C; read-out: Activity (IC50), Inhibition of β-Amyloid Peptide
Description: The detection of γ-secretase activity requires assays capable of reliable, accurate and expedient detection of γ-secretase cleavage products, particularly Aβ. An isolated membrane fraction that contains functionally active γ-secretase and β-APP substrates can generate γ-secretase cleavage products including Aβ (Roberts et al., WO 01/75435; Fechteler et al., Patent Application No. DE 99-19941039 19990828; Shearman et al., Biochemistry, 39, p. 8698–8704 (2000); Zhang et al., Biochemistry, 40, p. 5049-5055 (2001)). An isolated membrane fraction can be prepared from human derived cell lines such as HeLa and H4 which have been transfected with wild type or mutant forms of β-APP or a human alkaline phosphatase β-APP fusion construct, and stably express high levels of γ-secretase substrates. The endogenous γ-secretase present in the isolated membranes prepared at 0–4 degrees C. cleaves the β-APP substrates when the membranes are shifted from 0–4 to 37 degrees C. […] 325–327 (1992), or by a preferred method using time-resolved fluorescence of the homogeneous sample containing membranes and Aβ (Roberts et al., WO 01/75435; Shearman et al., Biochemistry, 39, p. 8698–8704 (2000)). The Aβ present in a homogeneous sample containing membranes can be detected by time-resolved fluorescence with two antibodies that recognize different epitopes of Aβ. One of the antibodies recognizes an epitope that is present in Aβ but not present in the precursor fragments; preferably the antibody binds the carboxyl terminus of Aβ generated by the γ-secretase cleavage. The second antibody binds to any other epitope present on Aβ. For example, antibodies that bind the N-terminal region (e.g., 26D6-B2-B3® SIBIA Neurosciences, La Jolla, Calif.) or bind the C-terminal end (e.g., 9S3.2® antibody, Biosolutions, Newark, Del.) of the Aβ peptide are known. The antibodies are labeled with a pair of fluorescent adducts that transfer fluorescent energy when the adducts are brought in close proximity as a result of binding to the N- and C-terminal ends or regions of Aβ. A lack of fluorescence is indicative of the absence of cleavage products, resulting from inhibition of γ-secretase. The isolated membrane assay can be used to identify candidate agents that inhibit the activity of γ-secretase cleavage and Aβ production.
A typical membrane-based assay requires 45 μg membrane protein per well in a 96- or 384-well format. Membranes in a neutral buffer are combined with the test compound and shifted from 0–4 to 37 degrees C. Test agents may typically consist of synthetic compounds, secondary metabolites from bacterial or fungal fermentation extracts, or extracts from plant or marine samples. All synthetic agents are initially screened at doses ranging from 10–100 μM or in the case of extracts at sufficient dilution to minimize cytotoxicity. Incubation of the membranes with the test agent will continue for approximately 90 minutes at which time fluorescence labeled antibodies are added to each well for Aβ quantitation. The time-resolved fluorescence detection and quantitation of Aβ is described elsewhere (Roberts et al., WO 01/75435; Shearman et al., Biochemistry, 39, p. 8698–8704 (2000)). Results are obtained by analysis of the plate in a fluorescence plate reader and comparison to the mock treated membranes and samples in which known amounts of Aβ were added to construct a standard concentration curve. A positive acting compound is one that inhibits the Aβ relative to the control sample by at least 50% at the initial tested concentration. If a compound is found to be active then a dose response experiment is performed to determine the lowest dose of compound necessary to elicit the inhibition of the production of Aβ.
The Formula I compounds were tested in the assay described above and found to be active as inhibitors of γ-secretase. […]

`CC(O)C[C@@H](C)N(c1cc(Cl)ccc1Cl)S(=O)(=O)c1ccc(Cl)cc1` (mixture of isomers) [Example 7] gave an IC50 of 0.05 to 0.2 µM.

With `CC(C)C(O)[C@@H](C)N(c1cc(Cl)ccc1Cl)S(=O)(=O)c1ccc(Cl)cc1` (mixture of isomers) [Example 10] the IC50 was 0.2 to 5 µM.

For `CC(C)CC(O)[C@@H](C)N(c1cc(Cl)ccc1Cl)S(=O)(=O)c1ccc(Cl)cc1` (mixture of isomers) [Example 11], the IC50 was 0.2 to 5 µM.

`C[C@H](C(O)C1CCCC1)N(c1cc(Cl)ccc1Cl)S(=O)(=O)c1ccc(Cl)cc1` (mixture of isomers) [Example 12] showed an IC50 of 0.2 to 5 µM.

For `C[C@H](C(O)C1CCCCC1)N(c1cc(Cl)ccc1Cl)S(=O)(=O)c1ccc(Cl)cc1` (mixture of isomers) [Example 13], the IC50 was 0.2 to 5 µM.

Compound `C[C@H](C(O)c1ccccc1)N(c1cc(Cl)ccc1Cl)S(=O)(=O)c1ccc(Cl)cc1` (mixture of isomers) [Example 14] has an IC50 of 0.2 to 5 µM.

With `COc1ccc(C(O)[C@@H](C)N(c2cc(Cl)ccc2F)S(=O)(=O)c2ccc(Cl)cc2)cc1` (mixture of isomers) [Example 22] the IC50 was 0.2 to 5 µM.

`C[C@H](C(O)CC(=O)O)N(c1cc(Cl)ccc1F)S(=O)(=O)c1ccc(Cl)cc1` (mixture of isomers) [Example 24] was tested, and the IC50 was 0.05 to 0.2 µM.

`CC(C)CC(O)C[C@@H](C)N(c1cc(Cl)ccc1Cl)S(=O)(=O)c1ccc(Cl)cc1` (mixture of isomers) [Example 28] showed an IC50 of 0.05 to 0.2 µM.

With `C=CCCC(O)C[C@@H](C)N(c1cc(Cl)ccc1Cl)S(=O)(=O)c1ccc(Cl)cc1` (mixture of isomers) [Example 29] the IC50 was 0.05 to 0.2 µM.

Work on `C[C@H](CC(O)c1ccccc1)N(c1cc(Cl)ccc1Cl)S(=O)(=O)c1ccc(Cl)cc1` (mixture of isomers) [Example 30] yielded an IC50 of 0.05 to 0.2 µM.

`C=CCC(O)[C@@H](C)N(c1cc(Cl)ccc1Cl)S(=O)(=O)c1ccc(Cl)cc1` (single isomer, unassigned) [Example 5A] gave an IC50 of 0.05 to 0.2 µM.

`C=CCC(O)[C@@H](C)N(c1cc(Cl)ccc1Cl)S(=O)(=O)c1ccc(Cl)cc1` (single isomer, unassigned) [Example 5B] showed an IC50 of 0.2 to 5 µM.

Compound `CCCC(O)[C@@H](C)N(c1cc(Cl)ccc1Cl)S(=O)(=O)c1ccc(Cl)cc1` (single isomer, unassigned) [Example 6A] has an IC50 of 0.05 to 0.2 µM.

`CCCC(O)[C@@H](C)N(c1cc(Cl)ccc1Cl)S(=O)(=O)c1ccc(Cl)cc1` (single isomer, unassigned) [Example 6B] showed an IC50 of 0.2 to 5 µM.

In the case of `CCCC(=O)OC(CCC)[C@@H](C)N(c1cc(Cl)ccc1F)S(=O)(=O)c1ccc(Cl)cc1` (single isomer, unassigned) [Example 8], the IC50 is reported as 0.05 to 0.2 µM.

`CC(O)C(C)N(c1cc(Cl)ccc1Cl)S(=O)(=O)c1ccc(Cl)cc1` (single isomer, unassigned) [Example 9A] gave an IC50 of 0.05 to 0.2 µM.

Work on `Cc1cc(C)c(C(O)[C@@H](C)N(c2cc(Cl)ccc2Cl)S(=O)(=O)c2ccc(Cl)cc2)c(C)c1` (single isomer, unassigned) [Example 16A] yielded an IC50 of 0.2 to 5 µM.

`CC(C(O)CCc1ccccc1)N(c1cc(Cl)ccc1Cl)S(=O)(=O)c1ccc(Cl)cc1` (single isomer, unassigned) [Example 17A] gave an IC50 of 0.2 to 5 µM.

With `CC(C(O)CCc1ccccc1)N(c1cc(Cl)ccc1Cl)S(=O)(=O)c1ccc(Cl)cc1` (single isomer, unassigned) [Example 17B] the IC50 was 0.2 to 5 µM.

`C=CCCC(O)C(C)N(c1cc(Cl)ccc1Cl)S(=O)(=O)c1ccc(Cl)cc1` (single isomer, unassigned) [Example 18A] was tested, and the IC50 was 0.05 to 0.2 µM.

In the case of `C=CCCC(O)C(C)N(c1cc(Cl)ccc1Cl)S(=O)(=O)c1ccc(Cl)cc1` (single isomer, unassigned) [Example 18B], the IC50 is reported as 0.2 to 5 µM.

Compound `CC(O)C(C)N(c1cc(Cl)ccc1F)S(=O)(=O)c1ccc(Cl)cc1` (single isomer, unassigned) [Example 19A] has an IC50 of 0.05 to 0.2 µM.

`C=CCCC(O)C(C)N(c1cc(Cl)ccc1F)S(=O)(=O)c1ccc(Cl)cc1` (single isomer, unassigned) [Example 20A] gave an IC50 of 0.05 to 0.2 µM.

Compound `C=CCCC(O)C(C)N(c1cc(Cl)ccc1F)S(=O)(=O)c1ccc(Cl)cc1` (single isomer, unassigned) [Example 20B] has an IC50 of 0.2 to 5 µM.

`C#CCC(O)[C@@H](C)N(c1cc(Cl)ccc1F)S(=O)(=O)c1ccc(Cl)cc1` (single isomer, unassigned) [Example 21A] was tested, and the IC50 was < 0.05 µM.

In the case of `C#CCC(O)[C@@H](C)N(c1cc(Cl)ccc1F)S(=O)(=O)c1ccc(Cl)cc1` (single isomer, unassigned) [Example 21B], the IC50 is reported as < 0.05 µM.

In the case of `C=CCC(O)[C@@H](C)N(c1cc(Cl)ccc1F)S(=O)(=O)c1ccc(Cl)cc1` (single isomer, unassigned) [Example 23A], the IC50 is reported as < 0.05 µM.

With `CCCC(O)[C@@H](C)N(c1cc(Cl)ccc1F)S(=O)(=O)c1ccc(Cl)cc1` (single isomer, unassigned) [Example 27A] the IC50 was < 0.05 µM.
